According to patent US20190046539A1, “PROPHYLACTIC OR THERAPEUTIC AGENT FOR NEUROPATHIC PAIN ASSOCIATED WITH GUILLAIN-BARRE SYNDROME” (KYUSHU UNIVERSITY, priority 2011, published 2019):

Key:
[1] = system: experimental autoimmune neuritis (EAN) rat model; test: Preventive administration, pain threshold of EAN rat model; format: in vivo; conditions: preventive continuous administration into the subarachnoid space by Micro Infusion Pump from immunization with P2 peptide-adjuvant; male LEW/CrlCrlj rat; FIG. 2
Description: (§1) The effect of P2X4 receptor antagonist on neuropathic pain was examined using an experimental autoimmune neuritis (EAN) rat model (Examples 3 and 4), which has been used as an experimental model for Guillain-Barré syndrome ([…]).
Six-week-old male LEW/CrlCrlj rat was acclimatized for about one week, and an indwelling polystyrene catheter with a 0.30 mm outside diameter was placed into the subarachnoid space. Three days or more after indwelling of the catheter for administration into the subarachnoid space, the rat was anesthetized with isoflurane, and an adjuvant or P2 peptide-adjuvant solution was administered by intradermal tale base injection in an amount of 80 μg/80 μL/rat. The compound A was continuously administered by Micro Infusion Pump (Primetech). The pump was placed at the same time of administration of P2 peptide-adjuvant.

[2] = system: experimental autoimmune neuritis (EAN) rat model; test: Therapeutic administration, pain threshold of EAN rat model; format: in vivo; conditions: therapeutic administration into the subarachnoid space from thirteen days after immunization (average manifestation score 2 or more); male LEW/CrlCrlj rat; FIG. 3
Description: as §1
Six-week-old male LEW/CrlCrlj rat was acclimatized for about one week, and an indwelling polystyrene catheter with a 0.30 mm outside diameter was placed into the subarachnoid space. Three days or more after indwelling of the catheter for administration into the subarachnoid space, the rat was anesthetized with isoflurane, and an adjuvant or P2 peptide-adjuvant solution was administered by intradermal tale base injection in an amount of 80 μg/80 μL/rat. Micro Infusion Pump was simultaneously placed into the back of the rat, and administration of the vehicle into the subarachnoid space was initiated. After immunization, symptom was observed (Table 2), and change of pain threshold was observed.

O=C1CC(=O)N(c2cccc(-c3nnn[nH]3)c2)c2ccc3ccccc3c2N1.[K] [Compound A, 5-[3-(1H-tetrazol-5-yl)phenyl]-1H-naphtho[1,2-b][1,4]diazepine-2,4(3H,5H)-dione potassium salt]
influence on pain threshold (allodynia) [1]: suppress pains in initial and later manifestations of the disease | influence on pain threshold (analgesic effect) [2]: significant analgesic effect on pain in later manifestation of the disease
